Where two headings read alike, the source gives them in different places.
How the values were obtained:
[1] = target: T1, eDHFR (Escherichia coli, UniProt P0ABQ4); assay: biochemical; conditions: for light-induced change in eDHFR inhibition (dark IC50 vs irradiated IC50): irradiation with λ1 = 365 nm;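 as to all read-outs here: purified E. coli DHFR colorimetric assay, enzyme with NADPH 3 min then inhibitor (10^-12 to 10^-5 M) 7 min, rate ΔAbs/s relative to DMSO control (1% v/v), triplicates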
T1 construct: made in house; host or cells: E. cloni EXPRESS BL21 (DE3) cells (Lucigen), pT7-SC1 plasmid
Method: A 10 mM stock solution of the inhibitor in DMSO was divided into two parts. One half was thermally adapted with a heat gun for 1 min to obtain only the trans isomer.
The compounds were tested as eDHFR inhibitors via a colorimetric assay (Sigma-Aldrich, Catalog No. CS0340). Instead of the human DHFR protein provided in the kit, the in-house purified eDHFR was used. In a 3 mL cuvette, eDHFR (∼20 ng) was incubated with NADPH (60 μM, final) for 3 min, followed by an incubation with the inhibitor (from 10^–5 to 10^–12 M, final) for an additional 7 min. […] The concentration of DMSO in the final volume was 1% v/v for all enzymatic reactions. The measurements were performed in triplicates. For the control enzymatic reactions, eDHFR was incubated with NADPH and DMSO (1% v/v, final). […] The related control enzymatic reaction was also performed under continuous irradiation with λ1 = 390 nm light. Linear regression was performed in Microsoft Excel to calculate ΔAbs/s. % eDHFR activity was calculated as the ratio between ΔAbs/s for the sample and ΔAbs/s for the control reaction. GraphPadPrism 5.0 (GraphPad Software, Inc., version 5.00) was used for the determination of the IC50 of each inhibitor. Nonlinear regression was used for data fitting.

[2] = Thermal cis-to-trans isomerization (thermal half-life of the metastable cis isomer); assay type: physicochemical; conditions: thermal cis-to-trans isomerization, DMSO, 25 °C, 20 µM
Method: UV–vis absorption spectra were recorded on an Agilent 8453 UV–vis Spectrophotometer. Photochemical isomerization (photoswitching) was achieved by irradiation from the side in a fluorescence quartz cuvette (width = 1.0 cm) using a custom-built (Prizmatix/Mountain Photonics) multiwavelength fiber coupled LED system (FC6-LED-WL) including the following LEDs: 365A, 390B, 420Z, 445B, 535R, 630CA. A detailed description of the setup was published by us recently.[84] Alternatively, the samples were irradiated at 340 nm using the LOT Quantum design setup with 300 W Xe-Arc lamp, using the Thorlabs FB340-10 Bandpass filter. A Quantum Northwest TC1 temperature controller was used to maintain the temperature at 25 °C during photochemical studies. To analyze the fatigue resistance of the compounds, repeated irradiation cycles were performed using alternating wavelengths. The decrease and increase of the π–π* transition band was followed by UV–vis spectroscopy (Agilent 8453) at 25 °C while stirring. To determine the thermal lifetime for the metastable cis isomer, samples were irradiated with the custom-built setup until photostationary state (PSS) was reached. Then, the cuvettes were placed in a JASCO V750 spectrophotometer with a PTC 424S/15 temperature controller, and the recovery of the π–π* transition was followed while stirring at 25 °C (for solutions in DMSO and eDHFR assay buffer) or 37 °C (for solutions in 10 mM Tris-HCl buffer pH 7.0). The data were fitted using a first-order exponential function in OriginPro 2018. For the PSD determination by ^1H NMR spectroscopy, 0.5 mL of a 2 mM solution of the respective compound in DMSO-d6 was thermally equilibrated by briefly (∼10 s) heating the sample with a heat gun. Subsequently, the sample was irradiated in a glass NMR tube with a 365 nm hand-held lamp (Spectroline ENB-280C) or the LEDs of the custom-built setup. Detailed data are reported in the SI.

[3] = test system: E. coli CS1562; assay: Antibacterial activity assay (MIC, bacterial growth curves); assay type: cell-based, Escherichia coli; conditions: for MIC: Escherichia coli; for MIC / bacterial growth inhibition, same in both forms: both before and after irradiation with λ1 = 365 nm; for MIC / bacterial growth inhibition, same in both forms / light-induced difference in antibacterial activity (dark MIC vs irradiated MIC): E. coli CS1562; for light-induced difference in antibacterial activity (dark MIC vs irradiated MIC): irradiation with λ1 = 365 nm
Method: A culture of E. coli CS1562 was grown overnight in LB medium (10 g/L tryptone, 5 g/L yeast extract, 5 g/L NaCl) containing tetracycline (10 μg/mL) at 37 °C. The OD600 was measured, and the culture was diluted to 0.002 OD600 in LB medium. Series dilutions of the compounds were prepared in DMSO and diluted 25 times in sterile LB medium in a black sterile Eppendorf tube. […] Subsequently, the dark samples were added to the 96-well plate (100 μL, triplicates). Lastly, the LB medium containing E. coli CS1562 at 0.002 OD was added to every well (100 μL). The cells were grown overnight at 37 °C in a plate reader (Synergy H1, Biotek), and the OD600 was measured every 10 min with a 10 s shaking step before each measurement. The OD600 curves were background-corrected by subtracting the value at t = 0. […] Detailed data are reported in the SI.

[4] = IC50 Dark, dark-adapted (thermally adapted, trans isomer)
[5] = after irradiation, read-out: DHFR inhibition IC50 (nM) after irradiation
[6] = before irradiation, read-out: DHFR inhibition IC50 (nM) before irradiation
[7] = irradiated with λ1 (1: continuous irradiation at 390 nm), read-out: IC50 Light
[8] = no considerable activity up to, dark-adapted and irradiated states
[9] = light or radiation study, after irradiation with λ1 = 365 nm, E. coli CS1562, 24 h, read-out: MIC Light
[10] = light or radiation study, after irradiation, E. coli CS1562, 24 h, read-out: MIC (µM) after irradiation
[11] = light or radiation study, before irradiation, E. coli CS1562, 24 h, read-out: MIC (µM) before irradiation
[12] = dark, E. coli CS1562, 24 h, read-out: MIC Dark
[13] = DHFR inhibition IC50 (nM) before irradiation, before irradiation
[14] = irradiated to PSS with λ1 (340 nm for 3, 365 nm for 6-15), read-out: IC50 Light

T1 sequence (P0ABQ4 whole entry): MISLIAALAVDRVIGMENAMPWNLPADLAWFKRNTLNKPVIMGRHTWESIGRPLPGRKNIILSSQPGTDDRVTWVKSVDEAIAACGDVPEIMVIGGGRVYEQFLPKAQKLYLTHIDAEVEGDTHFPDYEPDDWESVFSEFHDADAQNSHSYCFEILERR

SMILES	melting point	IC50 [1, 4]	IC50 [1, 5]	IC50 [1, 6]	IC50 [1, 7]	IC50 [1, 8]	t1/2 DMSO (25 °C) [2]	light-induced change in eDHFR inhibition (dark IC50 vs irradiated IC50) [1]	MIC [3, 9]	MIC [3, 10]	MIC [3, 11]	MIC [3, 12]	IC50 [1, 13]	IC50 [1, 14]	MIC / bacterial growth inhibition, same in both forms [3]	light-induced difference in antibacterial activity (dark MIC vs irradiated MIC) [3]	MIC ([3]; CS1562, light or radiation study, 24 h)	MIC ([3]; CS1562, light or radiation study, 24 h, read-out: MIC (µM) before irradiation)	IC50 ([1]; fragment, no irradiation, read-out: IC50)
Nc1ncc(-c2ccc(/N=N/c3ccccc3)cc2)c(N)n1 [Compound 2, (E)-5-[4-(Phenyldiazenyl)phenyl]pyrimidine-2,4-diamine]	199 to 201 °C	> 10000 nM	> 10000 nM	> 10000 nM	> 10000 nM	> 10000 nM	27 h												
Nc1ncc(C#Cc2cccc(/N=N/c3ccccc3)c2)c(N)n1 [Compound 5, (E)-5-{[3-(Phenyldiazenyl)phenyl]ethynyl}pyrimidine-2,4-diamine]	207 to 209 °C	5300 nM			2600 nM		> 24 h												
COC(C)(C#Cc1cnc(N)nc1N)c1ccc(/N=N/c2ccc(Cl)c(C(=O)O)c2)cc1 (stereo not drawn) [Compound 13, (E)-2-Chloro-5-{[4-(4-(2,4-diaminopyrimidin-5-yl)-2-methoxybut-3-yn-2-yl)phenyl]diazenyl}benzoic acid]	212 °C (dec.)		29 ± 8.6 nM	28 ± 4.8 nM			> 24 h	no difference in activity	80 µM	80 µM	40 µM	40 µM							
COC(C)(C#Cc1cnc(N)nc1N)c1ccc(/N=N/c2ccc(C(=O)O)cc2)cc1 (stereo not drawn) [Compound 11, (E)-4-{[4-(4-(2,4-Diaminopyrimidin-5-yl)-2-methoxybut-3-yn-2-yl)phenyl]diazenyl}benzoic acid]	248 °C (dec.)	58 ± 13 nM	70 ± 39 nM				> 24 h	not significant	40 µM	40 µM	40 µM	40 µM	58 ± 13 nM	70 ± 39 nM	40 µM				
COc1ccc(/N=N/c2ccc(COc3c(OC)cc(Cc4cnc(N)nc4N)cc3OC)cc2)cc1 [PMAT, para-methoxyazobenzene trimethoprim, reference compound]		2 ± 0.61 nM												2.5 ± 0.61 nM					
COC(C)(C#Cc1cnc(N)nc1N)c1ccc(/N=N/c2ccc(C(=O)O)c(Cl)c2)cc1 (stereo not drawn) [Compound 15, (E)-2-Chloro-4-{[4-(4-(2,4-diaminopyrimidin-5-yl)-2-methoxybut-3-yn-2-yl)phenyl]diazenyl}benzoic acid]	245 °C (dec.)	52 ± 11 nM	27 ± 3.7 nM				> 24 h	2 fold	20 µM	20 µM	40 µM	40 µM	52 ± 11 nM	27 ± 3.7 nM		2 fold			
COc1cc(Cc2cnc(N)nc2N)cc(OC)c1OC [TMP, trimethoprim, reference compound]																	1.3 µM	1.3 µM	
Nc1ncc(C#Cc2ccc(/N=N/c3ccccc3)cc2)c(N)n1 [Compound 4, (E)-5-{[4-(Phenyldiazenyl)phenyl]ethynyl}pyrimidine-2,4-diamine]		> 10000 nM	> 10000 nM	> 10000 nM	> 10000 nM	> 10000 nM	8.6 h												
COC(C)(C#Cc1cnc(N)nc1N)c1ccc(/N=N/c2c(C)nn(C)c2C)cc1 (stereo not drawn) [Compound 9, (E)-5-(3-Methoxy-3-(4-((1,3,5-trimethyl-1H-pyrazol-4-yl)diazenyl)phenyl)but-1-yn-1-yl)pyrimidine-2,4-diamine]	162 to 164 °C		640 ± 510 nM	220 ± 60 nM			> 24 h		80 µM	80 µM	80 µM	80 µM				did not display any light-dependent potency difference			
Nc1ncc(/N=N/c2ccccc2)c(N)n1 [Compound 1, (E)-5-(Phenyldiazenyl)pyrimidine-2,4-diamine]	> 250 °C	> 10000 nM	> 10000 nM	> 10000 nM	> 10000 nM	> 10000 nM	1.3 h												
COC(C)(C#Cc1cnc(N)nc1N)c1ccc(/N=N/c2cccc(C(=O)O)c2)cc1 (stereo not drawn) [Compound 10, (E)-3-{[4-(4-(2,4-Diaminopyrimidin-5-yl)-2-methoxybut-3-yn-2-yl)phenyl]diazenyl}benzoic acid]	190 °C (dec.)	24 nM					> 24 h		20 µM	20 µM	20 µM	20 µM		57 nM	20 µM				
COC(C)(C#Cc1cnc(N)nc1N)c1ccc(/N=N/c2ccc(C)c(C(=O)O)c2)cc1 (stereo not drawn) [Compound 12, (E)-5-{[4-(4-(2,4-Diaminopyrimidin-5-yl)-2-methoxybut-3-yn-2-yl)phenyl]diazenyl}-2-methylbenzoic acid]	221 °C (dec.)		71 ± 18 nM	13 ± 2.8 nM			> 24 h	5 fold	20 µM	20 µM	20 µM	20 µM							
COc1cc(Cc2cnc(N)nc2N)cc(OC)c1OCc1cc(F)c(/N=N/c2c(F)cccc2F)c(F)c1 [TFAT, tetra-ortho-fluoroazobenzene trimethoprim, reference compound]			1.7 ± 0.32 nM	1.9 ± 0.61 nM															
Nc1ccnc(N)n1 [2,4-diaminopyrimidine, reference compound]																			390000 ± 150000 nM
COC(C)(C#Cc1cnc(N)nc1N)c1ccc(/N=N/c2ccc(C(=O)O)c(C)c2)cc1 (stereo not drawn) [Compound 14, (E)-4-{[4-(4-(2,4-Diaminopyrimidin-5-yl)-2-methoxybut-3-yn-2-yl)phenyl]diazenyl}-2-methylbenzoic acid]	240 °C (dec.)		37 ± 14 nM	77 ± 26 nM			> 24 h	2 fold	40 µM	40 µM	20 µM	20 µM							
COc1ccc(/N=N/c2ccc(C(C)(C#Cc3cnc(N)nc3N)OC)cc2)cc1 (stereo not drawn) [Compound 8, (E)-5-{3-Methoxy-3-[4-((4-methoxyphenyl)diazenyl]phenyl}but-1-yn-1-yl)pyrimidine-2,4-diamine]	186 to 189 °C	330 ± 190 nM	200 ± 77 nM		200 nM		> 24 h		> 80 µM	> 80 µM	> 80 µM	> 80 µM	330 ± 190 nM	200 ± 77 nM	> 80 µM				
COc1cc(Cc2cnc(N)nc2N)cc(OC)c1OCc1cc(Cl)c(/N=N/c2c(Cl)cccc2Cl)c(Cl)c1 [TCAT, tetra-ortho-chloroazobenzene trimethoprim, reference compound]			3.3 ± 2.1 nM	3.8 ± 1.4 nM															

Source: paper PMC8958501, “Hypothesis-Driven, Structure-Based Design in Photopharmacology: The Case of eDHFR Inhibitors” (Journal of Medicinal Chemistry, 2022)
